Values of other authors as cited in patent US20070027075A1, “Compositions and methods for targeted drug delivery” (priority 2003, published 2007).

Molecular target: prostate-specific antigen (Homo sapiens, UniProt P07288)
Details: PSA

Chain of prostate-specific antigen (P07288 25-261): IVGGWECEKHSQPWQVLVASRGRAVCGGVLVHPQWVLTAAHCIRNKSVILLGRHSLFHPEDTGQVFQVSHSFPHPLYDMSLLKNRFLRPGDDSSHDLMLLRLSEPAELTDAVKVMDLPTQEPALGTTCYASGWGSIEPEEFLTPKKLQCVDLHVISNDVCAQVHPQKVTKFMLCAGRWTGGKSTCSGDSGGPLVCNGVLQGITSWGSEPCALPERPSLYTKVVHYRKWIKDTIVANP

Sequence: CVFTSDYAFC
- Kd: 8 µM
